Assays:
AnAA16A = molecular target: T1, AnAA16A (Aspergillus nidulans, UniProt Q5BFA2); test: H2O2 production, ferric-xylenol orange assay; format: biochemical; conditions: 1 mM Pyg as reductant, O2; pH 5.0, 30 °C
T1 construct: gene ANIA_00778; catalytic domain; C-terminal extension (residues 199-306) removed, native signal peptide used for secretion; C-terminal His-tag cut with TEV; Pichia pastoris X-33; N-terminal His not methylated; Cu(II)-saturated
T1 sequence (Q5BFA2 20-198): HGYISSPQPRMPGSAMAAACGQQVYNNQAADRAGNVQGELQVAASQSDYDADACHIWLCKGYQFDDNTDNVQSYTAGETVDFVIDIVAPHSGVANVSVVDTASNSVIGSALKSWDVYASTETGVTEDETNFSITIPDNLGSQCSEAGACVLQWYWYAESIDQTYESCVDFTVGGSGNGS

MtAA16A [1] = molecular target: T2, MtAA16A (Thermothelomyces thermophilus, UniProt G2QH80); test: thermal shift (nDSF); conditions: may reflect reduction of the active-site copper rather than binding (authors)
T2 construct: gene MYCTH_2306267; mature secreted protein, homologously produced in M. thermophila C1; signal peptide removed; N-terminal His methylated; Cu(II)-saturated
T2 sequence (G2QH80 entry or part of it): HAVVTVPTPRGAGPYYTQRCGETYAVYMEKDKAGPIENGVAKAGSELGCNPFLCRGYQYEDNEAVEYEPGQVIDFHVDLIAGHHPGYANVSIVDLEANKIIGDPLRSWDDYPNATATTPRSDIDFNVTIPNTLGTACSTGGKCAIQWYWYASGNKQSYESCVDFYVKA

MtAA16A [2] = molecular target: T2, MtAA16A; test: H2O2-driven oxidation to coerulignone ([…],6-DMP assay); format: biochemical; conditions: co-substrate H2O2; Cu(II)-saturated enzyme

## Oc1cccc(O)c1O [pyrogallol]
AnAA16A
  H2O2 production, ferric-xylenol orange assay: we observed accumulation of H2O2 in MtAA16A-Pyg and AnAA16A-Pyg samples

## COc1cccc(OC)c1O [syringol, 2,6-dimethoxyphenol]
MtAA16A [1]
  thermal stabilization: syringol induced significant thermal stabilization (Figure S8), which is consistent with binding
MtAA16A [2]
  H2O2-driven oxidation to coerulignone (2,6-DMP assay): MtAA16A is a copper-dependent enzyme able to oxidize syringol in the presence of H2O2
